Patent publication US20120214784A1, “SPIROPIPERIDINE COMPOUNDS AS ORL-1 RECEPTOR ANTAGONISTS” (ELI LILLY AND COMPANY, priority 2009, published 2012)

Experiments:
[1] = tested on: NIH-Swiss mice; 129S6 wild type and nociceptin/ORL1 receptor knockout mice; assay: Forced-swim test in mice (mFST); format: in vivo, mouse; conditions: mFST
Description: Forced-Swim Test in Mice (mFST) mFST is an established in vivo assay for antidepressant activity (Li et al. J Pharmacol Exp Ther. 319(1):254-9, 2006.). […] The mFST was used to evaluate potential antidepressant-like activity of novel nociceptin/ORL1 antagonists according to previously published methods (Li et al. J Pharmacol Exp Ther. 319(1):254-9, 2006.). Briefly, male NIH-Swiss mice (Harlan Sprague-Dawley, Indianapolis, Ind.) weighing between 25-30 g are used. Group housed animals are removed from the vivarium to the testing area in their own cages and allowed to adapt to the new environment for at least 1 hour before testing. Alternatively, male 129S6 wild type and nociceptin/ORL1 receptor knockout mice were used to confirm dependence of the response to compound was nociceptin/ORL1 receptor dependent. All compounds are prepared in 20% Captisol, 25 mM phosphate buffer, pH 2.0 on the day of use. Mice are placed in a cylinder (diameter: 10 cm; height: 25 cm) filled with 6 cm of water (22-25° C.) for 6 min. The duration of immobility during the last 4 min. of the 6 min. period of the test was scored. A mouse is recorded as immobile when floating motionless or making only those movements necessary to keep its head above water.

Adenosine A3 = Adenosine A3 (Homo sapiens, UniProt P0DMS8); assay: Radioligand binding selectivity
[2] = molecular target: T1, cloned human ORL1/nociceptin receptors (Homo sapiens, UniProt P41146); assay: Functional blockade of agonist-mediated G-protein activation, GTP-γ-[35S] binding; format: biochemical
T1 construct: expressed in transfected cells
Description: Agonist-mediated stimulation of G-protein coupled receptors results in the activation of membrane associated Gαβγ-protein heterotrimer complexes, and represents the first step in the transduction of extracellular signals to modification of intracellular pathways. The first step in activation of receptor-mediated activation of Gαβγ-proteins heterotrimer is the exchange of Gα subunit bound guanosine diphoshpate (GDP) for guanosine triphosphate (GTP). The binding of GTP to the Gα subunit causes dissociation of the heterotrimer subunits, Gβ and Gγ, resulting in the modulation of several intracellular signaling cascades. Measurement of receptor-mediated G-protein activation can be measured using the non-hydrolyzable radiolabeled analog of GTP, GTP-γ-[35S]. Utilizing this methodology, antagonist affinity (Kb) is measured in membranes expressing cloned human ORL1/nociceptin receptors using a GTP-γ-[35S] binding assay according to previously described protocols with minor modifications (DeLapp et al., J Pharmacol Exp Ther. 1999 May; 289(2):946-55; Ozaki et al., Eur J Pharmacol. 2000 Aug. 18; 402(1-2):45-53). Assays are conducted in a 200-μl volume with the following buffer composition: 100 mM NaCl, 20 mM HEPES, 5 mM MgCl2, 1 mM EDTA, 0.1% BSA, 3 μM GDP, 0.5 nM [^35S]GTPγS. ORL1 receptor membrane suspension is added at a concentration of 20 μg protein per well and receptor stimulation is achieved using 300 nM nociceptin/OFQ. Wheat germ agglutinin coated SPA beads (Amersham, Arlington Hts., Ill.) are added at 1 mg per well to detect membrane-bound [^35S]GTPγS. Plates are sealed and incubated for 2 hr. at room temperature. Plates are then placed at 4° C. overnight to allow the SPA beads to settle and then counted in a Wallac Microbeta. Specific [^35S]GTPγS binding is determined as the difference in CPM observed in the absence and presence of 10 μM unlabeled GTPγS. Data are plotted as the percent of specific [^35S]GTPγS bound. Curves are plotted as the percent of specific binding and IC50 values are determined using a sigmoidal dose response curve with variable slope. Antagonist affinity (Kb) is estimated according to DeLapp et al., 1999 using a modification of the equation of Cheng and Prusoff (1973) where Kb=IC50×(1+D×EC50^−1)^−1.

[3] = molecular target: T2, cloned human ORL1 receptors (Homo sapiens, UniProt P41146); assay: [3H]-OFQ/nociceptin receptor binding assay
T2 construct: expressed in transfected cells; host or cells: CHO cells (membranes)
Description: (§1) Radioligand binding assays are commonly used to determine the affinity (Ki) or potency of a compound to bind to a particular receptor or target protein. A filtration-based [3H]-OFQ/nociceptin receptor binding assay is developed based on previous assay formats (Ardati A, Henningsen R A, Higelin J, Reinscheid R K, Civelli O, Monsma F J Jr. Mol. Pharmacol. 1997 May; 51(5):816-24.) with minor modifications. [3H]-OFQ/nociceptin binding assays are carried out in deep-well 96-well plates. [^3H]OFQ (final assay concentration 0.2 nM) competition studies are carried out with 5-10 μg of membrane protein (isolated from Chinese hamster ovary cells (CHO cells) expressing cloned human ORL1 receptors) in a final assay volume of 0.5 mL of buffer containing 20 mM HEPES, pH 7.4, 5 mM MgCl2, 1 mM EGTA, 100 mM NaCl, 0.1% bovine serum albumin. Samples are incubated for 60 min. at room temperature, which is found to be optimal for competition assays. The assays are terminated by filtration through glass fiber filters (Wallac filtermat A) [pretreated with 0.3% polyethylenimine (Sigma) for 1 hr] on a Tometc cell harvester, and the filters are washed three times with 5 mL of ice-cold 50 mM Tris.HCl, pH 7.4. Filtermats are then dried and imbedded with Meltilex scintillant A and the radioactivity counted in a Wallac Microbeta scintillation counter. Specific binding is determined by displacement with 100 nM unlabeled nociceptin. Curves are plotted as the percent of specific binding and IC50 values are determined using a sigmoidal dose response curve with variable slope. K, values are calculated from the IC50 by the equation of Cheng and Prusoff (Cheng, Y. C., and Prusoff, W. H., Biochem. Pharmacol. 22, 3099-3108 (1973)) where Ki=IC50×(1+D×Kd^−1)^−1. Similarly, Ki for the mu, kappa and delta opioids, serotonin, adrenergic, and muscarinic receptors may be determined using membranes expressing the desired receptor and appropriate corresponding radioligand competitor molecules.

[4] = molecular target: T3, nociceptin/ORL1 receptors (Rattus norvegicus, UniProt P35370); assay: In vivo receptor occupancy (LC/MS/MS, RO Tracer) in hypothalamus; conditions: oral 3 mg/kg dose after 6 hr.
T3 construct: rats are sacrificed by cervical dislocation and the hypothalamus is removed; from tissue; host or cells: rat hypothalamus (in vivo occupancy)

5-HT2B = 5-HT2B (Homo sapiens, UniProt P41595); assay: Radioligand binding selectivity
Description: as §1

Muscarinic M4 = Muscarinic M4 (Homo sapiens, UniProt P08173); assay: Radioligand binding selectivity
Description: as §1

5-HT5 = 5-HT5 (Homo sapiens, UniProt P47898); assay: Radioligand binding selectivity
Description: as §1

5-HT1D = 5-HT1D (Homo sapiens, UniProt P28221); assay: Radioligand binding selectivity
Description: as §1

T1 sequence (P41146 whole entry): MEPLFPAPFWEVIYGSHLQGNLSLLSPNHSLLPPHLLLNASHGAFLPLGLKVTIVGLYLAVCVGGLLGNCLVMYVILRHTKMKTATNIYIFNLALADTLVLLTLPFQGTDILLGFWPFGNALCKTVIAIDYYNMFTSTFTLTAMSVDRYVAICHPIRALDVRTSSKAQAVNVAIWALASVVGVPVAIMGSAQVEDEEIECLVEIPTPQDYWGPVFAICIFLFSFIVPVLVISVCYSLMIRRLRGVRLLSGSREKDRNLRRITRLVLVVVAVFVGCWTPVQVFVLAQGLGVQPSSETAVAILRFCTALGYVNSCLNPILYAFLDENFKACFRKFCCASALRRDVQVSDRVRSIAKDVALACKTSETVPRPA
T2 sequence (P41146 whole entry): as above
Muscarinic M4, sequence (P08173 whole entry): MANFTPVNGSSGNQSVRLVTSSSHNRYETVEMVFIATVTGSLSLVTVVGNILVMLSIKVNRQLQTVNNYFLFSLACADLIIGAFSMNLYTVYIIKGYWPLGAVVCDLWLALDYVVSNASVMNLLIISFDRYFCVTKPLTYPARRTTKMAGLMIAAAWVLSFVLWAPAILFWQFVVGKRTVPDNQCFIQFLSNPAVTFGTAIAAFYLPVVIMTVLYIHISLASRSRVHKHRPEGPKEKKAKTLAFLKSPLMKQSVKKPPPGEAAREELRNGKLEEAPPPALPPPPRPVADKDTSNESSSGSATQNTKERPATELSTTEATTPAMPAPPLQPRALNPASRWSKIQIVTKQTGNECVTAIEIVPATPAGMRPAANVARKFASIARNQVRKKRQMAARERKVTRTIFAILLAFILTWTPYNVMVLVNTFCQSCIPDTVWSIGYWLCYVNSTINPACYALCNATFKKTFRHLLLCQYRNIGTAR
Adenosine A3, sequence (P0DMS8 whole entry): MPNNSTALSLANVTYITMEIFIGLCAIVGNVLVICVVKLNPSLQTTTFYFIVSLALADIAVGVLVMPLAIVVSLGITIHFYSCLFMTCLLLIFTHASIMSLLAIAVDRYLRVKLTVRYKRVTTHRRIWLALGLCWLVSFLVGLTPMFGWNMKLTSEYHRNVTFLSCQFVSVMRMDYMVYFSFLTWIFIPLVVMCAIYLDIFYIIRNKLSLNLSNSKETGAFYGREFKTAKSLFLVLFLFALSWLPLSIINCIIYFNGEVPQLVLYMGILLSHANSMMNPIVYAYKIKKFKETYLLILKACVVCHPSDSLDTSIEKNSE
5-HT5, sequence (P47898 whole entry, species assumed): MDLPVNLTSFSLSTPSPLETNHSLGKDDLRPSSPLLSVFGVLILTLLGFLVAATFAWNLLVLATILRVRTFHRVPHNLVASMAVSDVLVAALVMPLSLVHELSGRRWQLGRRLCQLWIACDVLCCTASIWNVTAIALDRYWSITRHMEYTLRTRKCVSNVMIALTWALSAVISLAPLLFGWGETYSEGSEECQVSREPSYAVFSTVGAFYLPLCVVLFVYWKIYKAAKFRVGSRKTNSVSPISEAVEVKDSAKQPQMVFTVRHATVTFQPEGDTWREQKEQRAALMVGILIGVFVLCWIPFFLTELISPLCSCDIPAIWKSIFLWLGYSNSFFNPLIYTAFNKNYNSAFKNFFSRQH
5-HT1D, sequence (P28221 whole entry, species assumed): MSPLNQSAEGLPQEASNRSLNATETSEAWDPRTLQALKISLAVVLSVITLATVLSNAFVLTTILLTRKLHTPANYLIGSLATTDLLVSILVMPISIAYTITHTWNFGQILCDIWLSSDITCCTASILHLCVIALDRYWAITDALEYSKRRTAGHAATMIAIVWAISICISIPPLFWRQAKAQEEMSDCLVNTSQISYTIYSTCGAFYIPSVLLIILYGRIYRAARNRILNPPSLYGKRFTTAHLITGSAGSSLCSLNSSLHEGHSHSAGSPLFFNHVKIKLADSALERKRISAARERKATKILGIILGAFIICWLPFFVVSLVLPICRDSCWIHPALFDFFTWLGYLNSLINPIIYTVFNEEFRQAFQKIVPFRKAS
T3 sequence (P35370 whole entry): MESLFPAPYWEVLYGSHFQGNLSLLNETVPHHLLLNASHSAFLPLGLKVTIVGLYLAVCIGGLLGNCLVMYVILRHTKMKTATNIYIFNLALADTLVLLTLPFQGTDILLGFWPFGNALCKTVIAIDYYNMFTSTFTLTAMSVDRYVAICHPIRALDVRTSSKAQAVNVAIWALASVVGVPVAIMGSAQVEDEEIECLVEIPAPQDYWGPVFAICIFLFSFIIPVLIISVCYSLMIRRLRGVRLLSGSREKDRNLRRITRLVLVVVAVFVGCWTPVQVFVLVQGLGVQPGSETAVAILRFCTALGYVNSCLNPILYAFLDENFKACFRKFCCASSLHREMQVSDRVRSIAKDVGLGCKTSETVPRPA
5-HT2B, sequence (P41595 whole entry, species assumed): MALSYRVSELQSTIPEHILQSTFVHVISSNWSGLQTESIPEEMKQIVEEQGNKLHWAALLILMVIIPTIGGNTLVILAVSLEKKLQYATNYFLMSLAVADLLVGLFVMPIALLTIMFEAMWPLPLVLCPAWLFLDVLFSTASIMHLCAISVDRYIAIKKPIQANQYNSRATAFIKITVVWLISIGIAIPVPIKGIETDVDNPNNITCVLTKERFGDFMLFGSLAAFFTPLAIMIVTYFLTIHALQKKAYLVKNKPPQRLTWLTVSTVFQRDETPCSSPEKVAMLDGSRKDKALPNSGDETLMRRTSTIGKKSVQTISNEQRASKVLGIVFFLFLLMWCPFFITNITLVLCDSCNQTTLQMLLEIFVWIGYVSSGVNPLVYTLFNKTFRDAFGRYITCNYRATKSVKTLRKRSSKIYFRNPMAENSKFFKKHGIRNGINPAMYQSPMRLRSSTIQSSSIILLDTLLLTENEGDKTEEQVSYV

For Cc1nn(-c2c(F)cccc2F)cc1CN1CCC2(CC1)OCC(F)(F)c1cc(Cl)sc12.O=C(O)C(O)C(O)C(=O)O [Example 2, 2-Chloro-1′-[[1-(2,6-difluorophenyl)-3-methyl-pyrazol-4-yl]methyl]-4,4-difluoro-spiro[5H-thieno[2,3-c]pyran-7,4′-piperidine] (L)-Tartrate], the “maximum effect, reduction in immobilization time” value [1] was 56%, the ED60 ([1]; immobility time) was 0.023 µM and the Ki (Adenosine A3) was 2.3 µM. It also gave a Kb [2] of 0.00043 µM, a Ki [3] of 0.00017 µM and a receptor occupancy at 3 mg/kg [4] of 76%. The Ki (5-HT2B) was 1.16 µM, the Ki (Muscarinic M4) was 6.36 µM and the Ki (5-HT5) was > 9.02 µM. For the same molecule, the Ki (5-HT1D) was > 7.89 µM.
